Results from patent US20240299321A1, “METHODS TO SENSITIZE CANCER CELLS AND STANDARDIZED SCREENING ASSAY FOR IMMUNOTHERAPY” (THE TRUSTEES OF INDIANA UNIVERSITY, priority 2020, published 2024).

Key:
[1] = test system: NY-ESO-1-specific CD8+ T cells; experiment: T cell effector function in MDA-MB-468 organoid co-culture; assay type: cell-based, human; details: vs control groups; FIG. 2D
Description: (§1) T cell effector function analysis: We measured cytokine and cytolytic granule production (IFNγ, GZMB and TNFα) of CD8+ T cells from mouse tumor samples and tumor organoid-T cell co-culture. Briefly, CD8+ T cells were placed into the 24-well plate at 1×10^6 cells/well, stimulated with 1 μM ionomycin and 50 ng ml-1 phorbol 12-myristate 13-acetate (PMA) (Sigma-Aldrich) for 4 h, in the presence of 5 μg ml-1 Brefeldin A (BFA), with the purpose to amplify the expression of intracellular cytokines61. The cells were stained with APC/Cy7-conjugated anti-CD8a (Biolegend) for 15 min and then fixed by 4% PFA. After washing, cells were stained with PerCP/Cy7-conjugated anti-GZMB, APC-conjugated anti-IFNγ and PE-conjugated anti-TNFα (Biolegend) for 15 min. In flow cytometric analyses, T cells stained with isotype control antibodies were used as negative controls for gating the cytokine or granule-producing cells. For T cells from tumor organoid-T cell co-culture, tumor organoids were first digested into single cells with TrypLE Express at 37° C. before APC/Cy7-conjugated anti-CD8a staining. In the IFNγ and TNFα secretion assay (Biolegend), T cells were stimulated with ionomycin and PMA without the presence of BFA. The media were collected for ELISA assay.

EO771 tumors = experiment: EO771 orthotopic breast tumor model in immunocompetent C57BL/6 mice; assay type: in vivo; details: for tumor infiltration of T cells (total CD3+, CD4+ and CD8+) / expression of GZMB, IFNγ and TNFα in the tumor-infiltrated CD8+ T cells: 20 mg kg-1; for tumor infiltration of T cells (total CD3+, CD4+ and CD8+): flow cytometry; for tumor growth and weight: 20 mg kg-1 i.p., 3 times/week for 2 weeks; for tumor growth and weight / tumor cell proliferation (Ki67+): vs control group; for numbers of apoptotic tumor cells (cleaved Caspase 3+) / tumor cell proliferation (Ki67+): IHC of tumor tissue; for expression of GZMB, IFNγ and TNFα in the tumor-infiltrated CD8+ T cells: FIG. 3E; for anti-tumor activity after depletion of CD4+ T cells: anti-CD4 10 mg kg-1 + drug 20 mg kg-1; for anti-tumor activity after depletion of CD8+ T cells: anti-CD8 10 mg kg-1 + drug 20 mg kg-1; for IFNγ and TNFα secretion by CD8+ T cells of drug-treated tumors: upon stimulation (PMA and ionomycin)
Description: as §1
Immunohistochemistry (IHC) and Immunofluorescence (IF) analysis of tumor organoids: Tumor organoids were gently centrifuged at 100 rcf from organoid culture medium and then embedded in 2% agar. Tumor organoids were fixed in 4% paraformaldehyde solution for overnight at room temperature. The samples were replaced with 70% ethanol and later embedded in paraffin blocks. Paraffin sections were cut at 5 μm thickness, attached on slides, heated at 60° C. for 1 h and then overnight at 37° C. The slides were stained with hematoxylin and eosin (H&E). IHC staining follows the protocol described62. Mouse-specific antibodies for CD8α (Cell Signaling Technology, clone D4W2Z, 1:400 dilution), cleaved caspase3 (Cell Signaling Technology, clone D175, 1:400 dilution) and Ki67 (Cell Signaling Technology, clone D3B5, 1:400 dilution) were used for IHC staining. The DAB peroxidase substrate kit (Vector laboratories Inc.) was used to visualize the antibodies. For IF analysis, the sample slides were blocked 3% BSA for 40 min after hydration. The slides were stained with primary antibodies including EpCAM (Abcam, 1:400 dilution), FITC-conjugated anti-α-SMA (Genetex, 1:400 dilution) and AF594-conjugated anti-CD31 (Biolegend) for 1 h. For EpCAM staining, the slide was further stained with secondary antibody Alexa Fluor 647-conjugated anti-rabbit IgG (Biolegend, 1:200) for 40 min. The fluorescence images were captured under a Leica DM4B microscope.
Animal studies: All animal experiments were performed in accordance with the National Institutes of Health's Animal Use Guidelines and protocols approved by the Animal Care and Use Committee of Indiana University School of Medicine. To examine the tumorigenic potential of tumor organoids, tumor organoids with different sizes (diameter of 30-70, 70-150, and 150-500 μm) were orthotopically injected into fat pad of the 4th mammary gland in female C57BL/6 mice. Each mouse was injected with a total of 2×10^5 tumor cells. 5 mice were used in each group. Tumors were measured in two dimensions using a manual caliper. Tumor volume was calculated using the following formula: V=0.5×length×width×width. Tumor volume was measured every 3 days. Tumors were harvested 22 days after injection. The tumor growth, volume and weight were analyzed. To evaluate the anti-tumor effect of drugs in immunocompetent C57BL/6 mice and immunodeficient nude (NU/J) mice, 2×10^5 EO771 cells were orthotopically injected into fat pad of the 4th mammary gland in female mice. […]

OVA+ EO771 cells = experiment: H-2Kb presentation on OVA+ EO771 cells (flow cytometry, confocal); assay type: cell-based, mouse; details: for H-2Kb antigen presentation (confocal images): 1 μM, 48 h, FIG. 4E; for H-2Kb levels on EO771 cells (MFI): flow cytometry
Description: Flow Cytometry: Sample acquisition was done using LSR Fortessa X-20 or LSR Fortessa (BD Biosciences) and data were analyzed using FlowJo v10.6.0 software. Live/dead cells were assessed using SYTOX Blue (Invitrogen, Dilution 1:100). For cell staining involving cell permeabilization, the BD cytofix/cytoperm fixation permeabilization kit (BD Biosciences) was used. The PBS buffer containing 0.5% BSA and 10% FBS were used to dilute antibodies. The antibodies used in flow cytometrical analyses include: […] The compensation was performed using CompBeads for negative control (BD Biosciences), anti-mouse Ig,κ (BD Biosciences), anti-rat Ig,κ and anti-hamster Ig,κ (BD Biosciences). The beads were stained with the corresponding antibodies separately under the same conditions as the cells were stained in each experiment. SYTOX Blue reagent was used to stain dead cells. Half of the live cells were incubated at 60° C. for 2 min to enable membrane permeable and then mixed with the other half incubated at 37° C. The mixed cells were stained with SYTOX Blue for 15 mins and used for compensation. For all the data analysis, doublet exclusion was performed and only single cells were analyzed. Dead cell populations were also excluded from analysis if the experiment were not involved in cell killing. One million events per sample were collected for immune profiling analysis in the animal experiments. For all in vitro experiments, at least ten thousand events per sample were collected for flow cytometry analysis. Confocal Microscopy: OVA+ EO771 and NY-ESO-1+ MDA-MB-468 cells were seeded at 5×10^3 cell/well in the 8-well slide (Millicell EZ slide, […]) and treated with 1 μM drug (GSK-LSD1, CUDC-101 or BML-210) for 48 h. FITC-conjugated anti-mouse H-2Kb antibody (Biolegend, dilution 1:50) and FITC-conjugated anti-HLA-A2 (Biolegend, dilution 1:50) were used to stain OVA+ EO771 and NY-ESO-1+ MDA-MB-468 cells, respectively, for 2 h. For cell nucleus staining, cells were incubated with 0.5% Triton X-100/PBS for 10 min and stained with DAPI (Sigma-Aldrich, dilution 1:100) for 15 min. The slides were rinsed in PBS twice and mounted with ProLong Gold anti-fade mountant (Invitrogen, P36930). Fluorescence images were captured using Leica TCS SP8 (upright high speed multiphoton) confocal imaging system. 3-D images were analyzed by the Imaris x64 8.1.2 software.

SMILES	GZMB, IFNγ and TNFα expression levels in the CD8+ T cells [1]	tumor infiltration of T cells (total CD3+, CD4+ and CD8+) (EO771 tumors)	tumor growth and weight (EO771 tumors)	numbers of apoptotic tumor cells (cleaved Caspase 3+) (EO771 tumors)	tumor cell proliferation (Ki67+) (EO771 tumors)	cytotoxicity of the CD8+ T cells in the tumors (EO771 tumors; immune analyses of treated tumors)	H-2Kb antigen presentation (confocal images) (OVA+ EO771 cells)	H-2Kb levels on EO771 cells (MFI) (OVA+ EO771 cells)	expression of GZMB, IFNγ and TNFα in the tumor-infiltrated CD8+ T cells (EO771 tumors)	anti-tumor activity after depletion of CD4+ T cells (EO771 tumors)	anti-tumor activity after depletion of CD8+ T cells (EO771 tumors)	IFNγ and TNFα secretion by CD8+ T cells of drug-treated tumors (EO771 tumors)	anti-tumor activity relative to the other candidates (EO771 tumors; in vitro and in vivo assays)
c1ccc([C@@H]2C[C@H]2NC2CCNCC2)cc1 [GSK-LSD1]	much higher	higher tumor infiltration of T cells	markedly suppressed	increased	much lower	enhanced cytotoxicity of the CD8+ T cells	boosted up the antigen presentation	increased					
C#Cc1cccc(Nc2ncnc3cc(OC)c(OCCCCCCC(=O)NO)cc23)c1 [CUDC-101]	much higher	higher tumor infiltration	significantly suppressed	increased	markedly lower		boosted up the antigen presentation	increased	up-regulated	did not have much effect	abolished the anti-tumor activity	secreted more IFNγ and TNFα	
Nc1ccccc1NC(=O)CCCCCCC(=O)Nc1ccccc1 [BML-210]	much higher	higher tumor infiltration	significantly suppressed	increased	markedly lower		boosted up the antigen presentation	much higher levels	up-regulated	did not have much effect	abolished the anti-tumor activity	secreted more IFNγ and TNFα	most potent anti-tumor activity
